Assay results as given in patent US10494417B2, “Peptide inhibitors of BCR-ABL oligomerization” (University of Utah Research Foundation, priority 2014, dated 2019).
“Also recorded” adds a separate entry of the source.

Columns and labels:
[1] = tested on: CD34+ cells from newly diagnosed CML patients; assay: Colony forming assay of CD34+ cells from newly diagnosed CML patients; format: cell-based, human; details: day 14 CFU-GM; lentiviral CCmut3 or 2.5 μM imatinib vs EV
Description: Primary cells were seeded in Methocult H4230 (Stem Cell Technologies) as described previously (Fleischman, A. G., et al. (2011). Blood 118, 6392-6398). Briefly, lentivirus-infected (GFP^+) cells were isolated by FACS and resuspended in RPMI1640. Cells were plated in Methocult H4230 at 1,000 cells/mL supplemented with 1× StemSpan CC100 cytokine mix (StemCell Technologies) with or without TKI as indicated in each experiment. Plates were incubated at 37° C. in a 5% CO2 humidified incubator for 14 days. Colony forming units of granulocyte-macrophage (CFU-GM) were counted on day 14 using an inverted microscope.
Following selection of transfected cells by cell sorting, methylcellulose colony assays were performed by plating in 0.9% methylcellulose (Stem Cell Technologies; M3234 for Ba/F3 BCR-ABL1 native and mutant lines; M3434 for Ba/F3 parental cells; H4230 for CML patient samples). mCherry-positive Ba/F3 cells (1.1×10^3 cells/plate) or GFP-positive primary CML CD34+ cells (1×10^3 cells/plate) were seeded per dish in duplicate. In the case of CML patient samples, cells were plated in the presence of 1× StemSpan CC100 cytokine cocktail (StemCell Technologies). All cells were plated with or without the indicated TKI in three or more independent experiments. Plates were incubated at 37° C. in a 5% CO2 humidified incubator. Colonies were counted 7-14 days later in an area of 50 μm2 per dish using an inverted microscope.

K562 cells [2] = assay: Proliferation/viability of transfected K562 cells (trypan blue exclusion); format: cell-based, human; details: 72 h following transfection, trypan blue exclusion, vs mCherry control, n=1
Description: K562 cells, human leukemia Bcr-Abl^+ cells (gifted from Kojo Elenitoba-Johnson, University of Michigan), were grown in RPMI 1640 media supplemented with 10% FBS, 1% penicillin-streptomycin-glutamine, and 0.1% gentamicin (complete medium). […] Transfections were carried out two days following cell passaging. Then, 2.0×10^6 cells were collected and transfected with 6 μg pf pEGFP, pEGFP-CC^mut3, pmCherry, or pmCherry-CC^mut3 according to the Cell Line Nucleofector Kit V protocol, program T-013, using the Amaxa Nucleofector II (Lonza Group, Basel, Switzerland).
Cell counts were performed using a standard light microscope.
Two days following cell passaging, 2.0×10^6 cells were collected by centrifugation at 500×g for 10 min for each transfection group. Following cell collection, 6 lig DNA (pEGFP, pEGFP-CC, pEGFP-CCmut3, pEGFP-Helix2WT, pEGFP-Helix2mut3, pmCherry, pmCherry-CCmut3, or pmCherry-CappedHelix2mut3) was transfected into cells according to the Cell Line Nucleofector® Kit V protocol (program T-013) using the Amaxa Nucleofector II (Lonza Group, Basel, Switzerland). Following transfection, the DNA/cell mixture was added to 10 mL Complete RPMI 1640 media and allowed to incubate at 37° C. for 24, 48, or 72 h until analysis, depending on the assay.
(§1) Forty-eight or 72 h following transfection, 100 μL of treated K562 or Ba/F3-p210 cells was mixed with 100 μL trypan blue solution (Life Technologies). The numbers of viable cells (those impermeable to the trypan blue dye) from four different quadrants in an INCYTO™ C-CHIP™ Neubauer hemacytometer (VWR International, Radnor, Pa., USA) were counted using a standard light microscope. Quadrant counts were then averaged to obtain the number of viable cells per mL. For experiments using the Helix2mut3 construct, counts were performed on one aliquot per transfection (n=3 in replicate). In experiments involving the CappedHelix2mut3 construct, counts were performed three times using separate 100 pt aliquots from one transfection (n=1 in triplicate).

K562 cells [3] = assay: Colony forming assay of transfected K562 cells; format: cell-based, human; details: for colony formation (transformative ability), in words: construct delivered as a gene by transfection, vs EGFP (and WT) control
Description: Both EGFP and EGFP-CC^mut3 were transfected into separate groups of cells on day 0. One day following transfection, 1.0×10^6 cells per treatment group were collected and re-suspended in 1.0 mL of PBS. Through serial dilutions, 1.0×10^3 cells in IMDM (Isocove's modified Dulbecco's media) with 2% FBS were seeded into methylcellulose medium in the absence of cytokines (MethoCult H4230 for K562 cells and MethoCult M3234 for p210 and p210-T315I cells) or in the presence of cytokines (MethoCult GF M3434 for parental Ba/F3 cells). Ponatinib was then added in the correct molar amounts (0, 100 pM, 1 nM, or 10 nM) to the methylcellulose medium. Colonies formed were counted after 7 days of incubation. All reagents were purchased from Stem Cell Technologies, Vancouver, BC, Canada. Assay was run three separate times (n=3) in duplicate.
(§2) Briefly, K562 or Ba/F3-p210 cells were transfected according to the protocol above. One day following transfection, 1.0×10^6 cells per transfection group were collected and re-suspended in sterile PBS. […] Finally, 1.1 mL of cell/methylcellulose mixture was seeded in duplicate and allowed to grow at 37° C. and 5% CO2 for 7 days. Colony formation was assessed by counting colonies in two 200 μm2 areas on the plate. Experiments were performed once in duplicate (n=1 in duplicate). All kit reagents and media were purchased from Stem Cell Technologies (Vancouver, BC, Canada).

[4] = tested on: Ba/F3 cells expressing native BCR-ABL1 (Ba/F3-p210); assay: Colony forming assay of transfected Ba/F3-p210 cells; format: cell-based, mouse; details: cappedHelix2mut3 study, n=1, data not shown
Description: as §2

Ba/F3-P210 cells = assay: Viability of transfected Ba/F3-p210 cells (trypan blue exclusion); format: cell-based, mouse; details: 72 h following transfection, vs mCherry control, n=1
Description: Two days following cell passaging, 3.0×10^6 cells were collected by centrifugation at 750×g for 10 min for each transfection group. Following collection, 4 μg DNA was transfected into cells according to the Cell Line Nucleofector® Kit V protocol (program X-001) using the Amaxa Nuelcofector II. Following nucleofection, the DNA/cell mixture was added to 500 μL plain RPMI and incubated for 20 min. After incubation, the 500 μL cell/DNA/RPMI mixture was added to complete RPMI 1640 media and allowed to incubate at 37° C. for 72 h until analysis.
as §1

[5] = tested on: CML CD34+ cells expressing BCR-ABL1T315I; assay: Colony forming assay of primary CML CD34+ cells expressing BCR-ABL1T315I (samples R1, R2); format: cell-based, human; details: sample R1 (accelerated phase); lentiviral CCmut3 or 10 nM ponatinib vs EV
Description: Mononuclear cells (MNCs) were separated from the peripheral blood of patients with newly diagnosed or therapy-resistant CML with a documented T315I mutation, using Ficoll (Nycomed, Oslo, Norway). Isolation of the CD34^+ fraction was done on an autoMACS Pro (Miltenyi Biotech). […] Cells were infected with lentivirus at a multiplicity of infection (MOI) of 5 for each construct at 24 and 48 hours following harvest (fresh cells) or thaw (frozen cells). Cells were sorted on a BD FACSAria cytometer after 72 h, and GFP-positive cells were returned to culture medium for future experiments. All patients gave their informed consent in accordance with the Declaration of Helsinki, and all studies with human specimens were approved by The University of Utah Institutional Review Board (IRB).
Briefly, lentivirus-infected (GFP^+) cells were isolated by FACS and resuspended in RPMI1640. […] Plates were incubated at 37° C. in a 5% CO2 humidified incubator for 14 days. Colony forming units of granulocyte-macrophage (CFU-GM) were counted on day 14 using an inverted microscope.
All cells were plated with or without the indicated TKI in three or more independent experiments. Plates were incubated at 37° C. in a 5% CO2 humidified incubator. Colonies were counted 7-14 days later in an area of 50 μm2 per dish using an inverted microscope.

[6] = tested on: CML CD34+ cells expressing BCR-ABL1T315I; assay: Liquid culture of primary T315I CML cells; format: cell-based, human; details: CC^mut3 or increasing concentrations of ponatinib (FIG. 28C)
Description: Cell proliferation was assessed using the CellTiter 96® AQueous One Solution Cell Proliferation Assay (MTS assay, Promega) according to manufacturer instructions. Briefly, 5,000 viable cells were added to a single well in 96-well plate in 100 μL RPMI1640. Three independent samples were seeded in duplicate for each time point. […] In some experiments, cell proliferation was assessed using a Neubauer chamber and trypan blue dye exclusion.

[7] = Phase III trial for first-line therapy in CML patients, discontinued; cited from earlier work
K562 cells [8] = assay: Nuclear (DNA) segmentation apoptosis assay in transfected K562 cells; format: cell-based, human; details: 48 h, vs EGFP control
Description: CC^mut3 was then tested for its ability to induce apoptosis in K562 cells. Apoptosis was observed using 3 different methods: 1) nuclear segmentation; 2) induction of the effector Caspase-3/7; and 3) 7AAD/Annexin V staining.
Nuclear segmentation analysis was performed as previously described (16). Briefly, immediately prior to cellular analysis, 2-well live cell chambers were treated for 15 min with poly-L-lysine (Sigma-Aldrich, St. Louis, Mo., USA), to allow cell adhesion in the wells. Forty-eight h following transfection, the transfected K562 cells were transferred to the pretreated 2-well live cell chambers. Cells were incubated for 15 min at 37° C. following the addition of 0.3 μL Hoechst H33342 nuclear stain (Life Technologies, Carlsbad, Calif., USA). Cells were then imaged using an inverted fluorescence microscope (Olympus IX701F, Scientific Instrument Co., Sunnyvale, Calif., USA) equipped with an F-view Monochrome CCD camera. Fields of view were selected based on EGFP fluorescence when viewing using a 40× oil immersion objective. Nuclei from cells that were positively transfected (positive for EGFP fluorescence) were categorized as either healthy (round or kidney-shaped nuclei) or segmented (punctate staining of nuclei), and the percentage of cells with segmented DNA was calculated (n=3 in replicate).

## Cc1ccc(NC(=O)c2ccc(CN3CCN(C)CC3)cc2)cc1Nc1nccc(-c2cccnc2)n1 [imatinib, reference compound]
[1]
  colony formation, in words: equally effective in reducing colony number

## cappedHelix2mut3: residues 27-68: α-helix2 of BCR-ABL CC domain with capping residues S27 and G68 and CCmut3 mutations (SVGDIEQELERAEARIRRDEQRVNQERFRMIYLETLLAKEKG)
K562 cells [2]
  proliferation/viability of K562 cells: failed to out-perform the negative control; also recorded: did not display inhibition of cell proliferation; also recorded: no evidence of BCR-ABL inhibition
K562 cells [3]; cappedHelix2mut3 study, n=1, data not shown
  colony formation: failed to out-perform the negative control; also recorded: same pattern as in the cell proliferation studies
[4]
  colony formation: same pattern as in the cell proliferation studies
Ba/F3-P210 cells
  proliferation/viability of Ba/F3-p210 cells: replicated to a similar extent; also recorded: no evidence of BCR-ABL inhibition

## helix2 domain: helix2 domain (amino acids 28-67) with the CC^mut3 mutations, delivered as a gene via nucleofection (MELRSVGDIEQELERAEARIRRDEQRVNQERFRMIYLETLLAKEKKSYDR)
K562 cells [3]
  colony formation (transformative ability), in words: sufficient to inhibit colony formation in K562 cells

## Cc1ccc(C(=O)Nc2ccc(CN3CCN(C)CC3)c(C(F)(F)F)c2)cc1C#Cc1cnc2cccnn12 [ponatinib, 3-[2-(imidazo[1,2-b]pyridazin-3-yl)ethynyl]-4-methyl-N-{4-[(4-methylpi-perazin-1-yl)methyl]-3-(trifluoromethyl)phenyl}benzamide, reference compound]
[5]
  reduction of colony formation: 47%
[6]
  effect in liquid culture: no effect
[7]
  patients with serious side effects: ~12%

## Helix2mut3: residues 23-72: α-helix2 of BCR-ABL CC domain plus five flanking residues each end, with CCmut3 mutations (MELRSVGDIEQELERAEARIRRDEQRVNQERFRMIYLETLLAKEKKSYDR)
K562 cells [3]; 7 days after seeding, normalized to EGFP control, n=1 in duplicate
  colony formation, of EGFP control: approximately 67%
K562 cells [3]
  colony formation (transformative ability), in words: outperformed negative control EGFP; also recorded: showed inhibitory activity; also recorded: prevented outgrowth of colonies to a greater extent than the EGFP control, however, not as well as the full length CCmut3
K562 cells [8]
  induction of apoptosis (nuclear/DNA segmentation): outperformed negative control EGFP; also recorded: statistically significant increase in apoptosis; also recorded: apoptosis was induced to a similar extent between both CCmut3 and Helix2mut3; also recorded: significantly induced apoptosis
